The values that follow come from patent US5686428A, “Pharmaceutical composition” (priority 1994, dated 1997).

Entries after “also recorded” stand apart in the source; their conditions may differ. Where two headings read alike, the source gives them in different places.

The subject of data set [1] is HCMV strain Ad169. Kind of data set: HCMV plaque reduction assay in HEL cells. Type of data set: cell-based, human cytomegalovirus. The settings on record: for EC50: Human betaherpesvirus 5, AD169, HEL, CMV infected cells. As to the method: HCMV strain Ad169 was a gift from Dr. Fred Rapp, Hersey, Pa. Human embryonic lung (HEL) cells, obtained from the American Type Culture Collection, Rockville, Md., were cultured in Dulbecco modified Eagle medium as decribed previously (39). Viable cells were conducted microscopically using a hemacytometer and the trypan blue exclusion method. Plaque reduction assays were performed in confluent monolayers of HEL cells in 6-well plates (Costar, Cambridge, Mass.) with 100 to 200 pfu of HCMV Ad169. After an adsorption period of 1 hour, unadsorbed virus was removed and the monolayers were overlaid with Dulbecco modified Eagle medium containing 0.75% SeaPlaque agarose (FMC BioProducts, Rockland, Me.), 2% heat inactivated fetal calf serum, and the appropriate concentration of drug. The plates were incubated at 37° C. in a humidified atmosphere containing 5% CO2 for 10 to 12 days. The monolayers were then fixed with 10% buffered Formalin (Fisher Scientific Co, Fair Lawn, N.J.), stained with crystal violet, and the number of plaques were counted.
(§1) Calculation of synergy. […] Briefly, the method involves plotting of dose-effect curves for each compound alone and in combinations. It is essential to use a fixed ratio of the agents in multiply diluted combinations in order to use the median-effect equation: fa /fu =(C/Cm)^m. In this equation, C is the concentration, fa and fu are the fractions of the system which are affected and unaffected, respectively, by concentration C. Cm is the concentration required for a 50% effect (analogous to IC50 to EC50 values), and m is a Hill-type coefficient signifying the sigmoidicity of the dose-effect curve. The slopes (m) of the dose-effect plots, obtained for the studied compounds, provided information as to whether the compounds are mutually exclusive (i.e. similar modes of action) or mutually non-exclusive (i.e. different modes of action). When the plots of both compounds and their combination were all parallel, the effects of the two compounds were mutually exclusive. The interaction between two compounds was determined by calculating the combination index (C.I.) with assumptions, where appropriate, of either mutually exclusive or non-exclusive interactions. When uncertainty existed as to whether the drugs acted in similar or independent manners, the determination of C.I.-values were calculated under each assumption and compared. Values of C.I.<1 indicated synergy, C.I.=1 indicated additive effects, and C.I.>1 indicated antagonism. A computer program obtained from Elsevier-Biosoft, Cambridge, U.K. was used for automatic analysis of all dose-effect data. Additional details on using this method have been reported previously (33).

Data set [2] has as its system HIV-1 (strain LAV-1). As to the kind of experiment: HIV-1 replication in infected human PBM cells (RT activity of disrupted virions). The data set is classed as cell-based. The conditions noted are these: for EC50: read-out: EC50 (median effective concentration).
Source text: Cells, virus strains, and cell culture assays. PBM cells from healthy HIV-1 and hepatitis B virus seronegative donors were isolated and propagated as described previously (35). HIV-1 (strain LAV-1) was obtained from the Centers for Disease Control, Atlanta, and propagated in PHA-stimulated human PBM cells as described previously (35). The details of the methods used for infection and assaying the anti-HIV-1 effect in infected human PBM cells have been reported (35).
RT activity assay with disrupted virions. Six ml supernatant from each culture was clarified from cells at 300× g for 10 minutes. Virus particles were then pelleted from 5 ml samples at 40,000 rpm for 30 minutes using a Beckman 70.1 Ti rotor and suspended in 200 μl of virus disrupting buffer [50 mM Tris-HCl pH 7.8, 800 mM NaCl, 20% glycerol, 0.5 mM phenylmethyl sulfonyl fluoride (PMSF), and 0.5% Triton X-100].
The RT assays were performed at 37° C. in 96-well microtiter plates using methods described previously (35, 38). The results were expressed as dpm/ml of the originally clarified supernatant.
as §1

For data set [3], the system named is HIV-1. The conditions noted are these: patients, after a 14-day treatment; cited from earlier work.
For data set [4], the system named is uninfected PHA-stimulated human PBM cells. As to the kind of experiment: Cell proliferation / toxicity in uninfected PBM cells (trypan blue exclusion). The data set is classed as cell-based. As to the method: Cell proliferation. The drugs alone and in combination were evaluated for their potential toxic effects on uninfected PHA-stimulated human PBM cells. Flasks were seeded so that the final cell concentration was 3×10^5 cells ml. The cells were cultured with and without drug for 6 days at which time aliquots were counted for cell viability by using the trypan blue exclusion method.

Data set [5] deals with T1, HCMV DNA polymerase (Human cytomegalovirus, UniProt P08546).
T1 construct: gift from Dr. B. Wahren, National Bacteriological Laboratory, Stockholm
Kind of data set: CMV DNA polymerase assay. The data set is classed as biochemical.
Source text: CMV DNA Polymerase Assay. The partially purified HCMV-specific DNA polymerase was a generous gift from Dr. B. Wahren, National Bacteriological Laboratory, Stockholm. The procedure for the purification of HCMV DNA polymerase by sequential chromatographic steps on DEAE-cellulose (Whatman DE-52) and phosphocellulose (Whatman P-11) and the measurement of enzyme activity have been described previously (5).
as §1

In data set [6] the target is T2, HIV-1 reverse transcriptase (Human immunodeficiency virus type 1 group M subtype B, UniProt P04585).
T2 construct: HIV-1 reverse transcriptase was isolated from detergent disrupted virions; endogenous in cells; host or cells: virions from cell-free supernatant of HIV-1 infected PHA-stimulated human PBM cells, ion-exchange chromatography
Kind of data set: RT activity assay with partially purified enzyme. Type of data set: biochemical. As to the method:
RT activity assay with partially purified enzyme. HIV-1 reverse transcriptase was isolated from detergent disrupted virions obtained from the cell-free supernantant of infected PHA-stimulated PBM cells. The enzyme was purified by passing the extract through ion-exchange chromatography columns as described previously (12). The enzyme was characterized as HIV-1 RT based on its specific requirements according to previous description (1, 18). The standard reaction mixture (100 μl) contained 100 mM Tris-HCl (pH 8.0), 50 mM KCl, 2 mM MgCl2. 5 mM dithiothreitol 400 μg/ml bovine serum albumin, 0.05 U/ml (3.1 μg/ml) of (rA)n (dT)12-18, 1 μM [^3 H] dTTP (spec. act. 18,000 cpm/pmol) and 10 μl of HIV-1 Rt. The reactions were incubated and processed as previously described (7).
as §1

The mark [7] stands for this setting: Human immunodeficiency virus 1, PBMC.

T1 sequence (P08546 whole entry): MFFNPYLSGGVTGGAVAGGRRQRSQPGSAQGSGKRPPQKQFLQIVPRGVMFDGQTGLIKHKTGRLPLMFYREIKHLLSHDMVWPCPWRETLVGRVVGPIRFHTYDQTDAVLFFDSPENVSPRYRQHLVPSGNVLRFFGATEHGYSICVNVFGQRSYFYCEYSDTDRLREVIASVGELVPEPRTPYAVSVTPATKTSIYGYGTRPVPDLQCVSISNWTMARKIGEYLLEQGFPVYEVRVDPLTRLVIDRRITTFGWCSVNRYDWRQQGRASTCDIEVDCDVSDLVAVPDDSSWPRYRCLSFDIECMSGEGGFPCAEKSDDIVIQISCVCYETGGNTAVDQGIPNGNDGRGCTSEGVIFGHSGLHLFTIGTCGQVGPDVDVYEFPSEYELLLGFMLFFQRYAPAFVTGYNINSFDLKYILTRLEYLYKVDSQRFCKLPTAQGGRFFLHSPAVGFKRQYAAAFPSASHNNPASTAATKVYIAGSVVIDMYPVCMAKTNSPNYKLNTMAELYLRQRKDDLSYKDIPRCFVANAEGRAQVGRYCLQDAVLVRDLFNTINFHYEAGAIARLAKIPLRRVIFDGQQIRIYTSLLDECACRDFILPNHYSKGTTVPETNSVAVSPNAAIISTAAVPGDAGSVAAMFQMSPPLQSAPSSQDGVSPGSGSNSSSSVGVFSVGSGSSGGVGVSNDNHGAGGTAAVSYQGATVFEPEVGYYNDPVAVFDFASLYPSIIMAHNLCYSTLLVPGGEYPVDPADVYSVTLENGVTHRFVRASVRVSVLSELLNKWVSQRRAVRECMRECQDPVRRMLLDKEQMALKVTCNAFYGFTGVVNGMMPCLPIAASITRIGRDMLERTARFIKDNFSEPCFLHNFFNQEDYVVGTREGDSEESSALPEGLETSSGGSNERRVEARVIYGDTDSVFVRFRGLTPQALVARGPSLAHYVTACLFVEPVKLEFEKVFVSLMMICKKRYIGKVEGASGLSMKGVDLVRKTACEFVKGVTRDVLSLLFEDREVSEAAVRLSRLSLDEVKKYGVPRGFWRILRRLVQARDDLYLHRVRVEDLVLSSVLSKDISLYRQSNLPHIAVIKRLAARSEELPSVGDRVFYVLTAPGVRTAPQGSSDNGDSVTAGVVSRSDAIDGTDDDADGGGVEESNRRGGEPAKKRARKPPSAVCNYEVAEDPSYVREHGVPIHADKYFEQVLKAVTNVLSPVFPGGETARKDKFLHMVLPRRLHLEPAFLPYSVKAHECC

The inhibition is the change of the read-out against control, counted positive when it falls. For `Cc1cn([C@H]2C[C@H](N=[N+]=[N-])[C@@H](CO)O2)c(=O)[nH]c1=O` [AZT, 3'-azido-3'-deoxythymidine], the EC50 in data set [1] (extrapolated in order to calculate C.I.-values, read-out: EC50 (extrapolated)) is 383000 nM; in data set [2] (setting [7]), 6 nM. Further, the “inhibitory effect on multiplication of HCMV Ad169 in HEL fibroblasts” value in data set [1] (concentrations up to 200 μM) was “virtually without inhibitory effect”. Also, in data set [1] (human embryonic lung fibroblasts), the “effect against HCMV replication in cell culture” value is listed as “no inhibitory effect; also recorded: neither inhibited the replication”. The RT activity in data set [2] (AZT 0.002 μM) is given as 750 kdpm/ml; in data set [2] (AZT 0.004 μM), 584 kdpm/ml; in data set [2] (AZT 0.008 μM), 343 kdpm/ml; in data set [2] (AZT 0.016 μM) it was 35.9 kdpm/ml. The inhibition at 0.002 µM in data set [2] (setting [7]) turned out to be 3%. Moreover, the inhibition at 0.004 µM in data set [2] (setting [7]) stood at 24.5%. Also, the inhibition at 0.008 µM in data set [2] (setting [7]) was determined as 55.7%. For the same compound, in data set [2] (setting [7]), the inhibition at 0.016 µM amounted to 95.5%.

Consider `O=C(O)P(=O)(O)O` [PFA, phosphonoformic acid], for which, in data set [3], the “HIV-1 p24 antigen concentrations” value is “significant reduction”. The “toxicity to PBM cells” value in data set [4] is listed as “not toxic”. Moreover, the EC50 in data set [1] (plaque formation, read-out: EC50 (median effective concentration)) came out at 34000 nM; in data set [5] (CMV DNA polymerase, read-out: EC50 (median effective concentration)) it was 780 nM; in data set [6], 140 nM; in data set [2] (setting [7]), 22000 nM. Further, in data set [5], the “EC50 times lower than that of AZT-TP” value was “more than 30 times”. Moreover, the “m ± SE (slope of median effect plot)” value in data set [5] (CMV DNA polymerase) came out at 0.79 ± 0.02; in data set [6] (HIV-1 reverse transcriptase) it was 0.91±0.03. Further, the inhibition at 8 µM in data set [2] (setting [7]) was found to be 9.1%. Besides, the inhibition at 16 µM in data set [2] (setting [7]) stood at 41.1%. The inhibition at 32 µM in data set [2] (setting [7]) was determined as 75.5%. Also, in data set [2] (setting [7]), the inhibition at 64 µM was determined as 88.1%. Also, in data set [2] (setting [7]), the inhibition at 128 µM was found to be 95.5%. For the same compound, the RT activity in data set [2] (PFA 8 μM) was found to be 703 kdpm/ml; in data set [2] (PFA 16 μM), 455 kdpm/ml; in data set [2] (PFA 32 μM) it was 190 kdpm/ml; in data set [2] (PFA 64 μM) it was 93.1 kdpm/ml; in data set [2] (PFA 128 μM), 35.9 kdpm/ml.

As for `Cc1cn([C@H]2C[C@H](N=[N+]=[N-])[C@@H](COP(=O)(O)OP(=O)(O)OP(=O)(O)O)O2)c(=O)[nH]c1=O` [AZT-TP, 3'-azido-3'-deoxythymidine-5'-triphosphate], the results for the “m ± SE (slope of median effect plot)” value in data set [5] (CMV DNA polymerase) and in data set [6] (HIV-1 reverse transcriptase) were 0.88 ± 0.09 and 0.87±0.03, respectively. In addition, the EC50 in data set [6] (HIV-1 reverse transcriptase, read-out: EC50 (median effective concentration)) was determined as 3 nM.
